Laboratory results reported in patent US12643867B2, “Compositions and uses thereof” (University of Virginia Patent Foundation, priority 2017, dated 2026).

What was measured:
Experiment in all cases: SILAC LC-MS ATP acyl phosphate probe competition, native kinases in HEK293T
Assay type in all cases: binding, Homo sapiens (Human)
[1] = system: AAPK1/AAPK2 (5′-AMP-activated protein kinase catalytic subunit alpha-1); conditions: site Lys2; ATP 1 mM; Ketanserin, Ritanserin 100 μM; RF001 1 mM
Procedure: (§1) Proteomes were diluted to 2 mg/ml in kinase buffer. The light and heavy proteomes (0.5 mg, 250 μL total reaction volume) were pre-treated with vehicle or compound, respectively (5 μL, DMSO (light) or 50× stock in DMSO (heavy)), mixed gently, and incubated at 25° C. for 30 min. […] After incubation, matched light and heavy proteomes were transferred and mixed in a 1:1 ratio in a two-dram vial containing 4:1:3 MeOH/CHCl3/H2O (2 mL MeOH, 500 AL CHCl3, 1.5 mL H2O) for extraction of proteins to remove excess probe, quickly vortexed, and centrifuged at 1,400×g for 3 min to pellet protein. Organic and aqueous layers were removed using a Pasteur pipette, and the protein pellet was transferred to a screw-top tube in 600 μL MeOH. A second extraction was performed by adding CHCl3 (150 μL) and H2O (600 μL) to each sample, vortexed, and centrifuged at 1,400×g for 3 min to pellet protein. Organic and aqueous layers were removed by pipetting. MeOH added to pellet (600 μL) and pellets were re-suspended by sonication (3×1 sec pulse, 20% amplitude) for a final extraction. Samples were then centrifuged at 17,000×g for 5 min to pellet protein and MeOH was removed by pipetting. The pellets were re-suspended in 10 M urea/25 mM ammonium bicarbonate ([…]), brought to a final volume of 1 mL with 25 mM ammonium bicarbonate, reduced with 10 mM DTT for 15 min at 65° C. allowed to cool, and then alkylated with 40 mM iodoacetamide for 30 min at 25° C. in the dark. To desalt the samples, each was transferred to a two-dram glass vial, and to the vial 4:1:2 MeOH/CHCl3/H2O (2 mL MeOH, 500 AL CHCl3, 1 mL H2O) was added. The vials were vortexed quickly, spun at 1.400×g for 3 min to pellet protein, and aqueous and organic layers were removed using a Pasteur pipette. The resulting protein pellet was transferred to a screw-top tube in 600 μL MeOH, and then CHCl3 (150 μL) and HO (600 μL) were added to extract protein a second time. The samples were vortexed quickly, centrifuged at 1,400×g to pellet protein, and the aqueous and organic layers were removed by pipetting. Resulting protein pellet was suspended in MeOH (600 μL) via sonication (3×1 sec pulse, 20% amplitude), centrifuged at 17,000×g for 5 min to pellet protein, and MeOH removed by pipetting. Protein pellets were then re-suspended in 25 mM ammonium bicarbonate (500 μL) and digested with 7.5 μg Trypsin/Lys-C(Promega, 15 μL, 0.5 μg/μL) for 3 h at 37° C. Avidin-agarose beads (Thermo Scientific Pierce, 100 AL aliquot per sample) were washed three times by adding 10 mL DPBS, centrifuged at 1,400×g for 1 min, and decanting. This wash step was repeated for a total of 3 times. Digested protein samples were mixed with washed avidin beads (100 μL) and brought to a volume of 5.5 mL with DPBS in a 15 mL conical and rotated for 1 h to enrich samples for the covalent desthiobiotin modification. The beads were washed with 25 mM ammonium bicarbonate (3× with 10 mL, centrifuge at 1,400×g for 3 min, decant) and then H2O (3× with 10 mL, centrifuge at 1,400×g for 3 min, decant). Washed beads were then transferred to a low-bind microfuge tube, centrifuged at 1,400×g for 3 min, allowed to rest for 1 min to settle beads, and then excess H2O was removed carefully using a gel-loading pipette tip. To elute peptides, 100 μL of elution buffer (50% acetonitrile, ACN; 0.1% formic acid) was added to each sample and incubated for 3 min. Beads were spun down at 1.400×g for 3 min, allowed to rest for 1 min to settle beads, and then 75 μL of peptide-containing supernatant was removed carefully using a gel-loading pipette tip and transferred to a new low bind centrifuge tube. This step was repeated two more times with 75 μL of elution buffer and all eluent were collected into the same centrifuge tube (˜225 μL total). Peptides were dried on a speed vacuum, resulting peptide samples acidified in 5% (v/v) formic acid, and stored at −80° C. until analysis.
(§2) The peptide samples were analyzed by liquid chromatography-mass spectrometry. […]

[2] = system: KS6A1/KS6A2/KS6A3 (Ribosomal protein S6 kinase alpha 1); conditions: site Lys2; ATP 1 mM; Ketanserin, Ritanserin 100 μM; RF001 1 mM
Procedure: as §1, §2

[3] = system: KS6A4/KS6A5 (Ribosomal protein S6 kinase alpha 4); conditions: site ATP Loop; ATP 1 mM; Ketanserin, Ritanserin 100 μM; RF001 1 mM
Procedure: as §1, §2

[4] = system: M4K4/MINK1/TNIK (Mitogen-activated protein kinase kinase kinase kinase 4); conditions: site Lys2; ATP 1 mM; Ketanserin, Ritanserin 100 μM; RF001 1 mM
Procedure: as §1, §2

[5] = system: MARK3/MARK4 (MAP/microtubule affinity-regulating kinase 3); conditions: site Lys1; ATP 1 mM; Ketanserin, Ritanserin 100 μM; RF001 1 mM
Procedure: as §1, §2

[6] = system: MP2K1/MP2K2 (Dual specificity mitogen-activated protein kinase kinase 1); conditions: site Lys2; ATP 1 mM; Ketanserin, Ritanserin 100 μM; RF001 1 mM
Procedure: as §1, §2

[7] = system: STK3/STK4 (Serine/threonine-protein kinase 3); conditions: site Lys2; ATP 1 mM; Ketanserin, Ritanserin 100 μM; RF001 1 mM
Procedure: as §1, §2

SILAC ratio, AAPK1/AAPK2 probe-modified peptide [1]	SILAC ratio, KS6A1/KS6A2/KS6A3 probe-modified peptide [2]	SILAC ratio, KS6A4/KS6A5 probe-modified peptide [3]	SILAC ratio, M4K4/MINK1/TNIK probe-modified peptide [4]	SILAC ratio, MARK3/MARK4 probe-modified peptide [5]	SILAC ratio, MP2K1/MP2K2 probe-modified peptide [6]	SILAC ratio, STK3/STK4 probe-modified peptide [7]	SMILES
1.4	1.4	1.3	1.3	1.4	1.3	1.2	O=C(c1ccc(F)cc1)C1CCN(CCn2c(=O)[nH]c3ccccc3c2=O)CC1 [Ketanserin]
1.1	1.2	1.1	1.1	1.1	0.9	0.9	Fc1ccc(C(=C2CCNCC2)c2ccc(F)cc2)cc1 [RF001, 4-(Bis(4-fluorophenyl)methylene) piperidine]

SMILES	SILAC ratio, AAPK1/AAPK2 probe-modified peptide [1]	SILAC ratio, KS6A1/KS6A2/KS6A3 probe-modified peptide [2]	SILAC ratio, KS6A4/KS6A5 probe-modified peptide [3]	SILAC ratio, M4K4/MINK1/TNIK probe-modified peptide [4]	SILAC ratio, MARK3/MARK4 probe-modified peptide [5]	SILAC ratio, MP2K1/MP2K2 probe-modified peptide [6]	SILAC ratio, STK3/STK4 probe-modified peptide [7]
Cc1nc2sccn2c(=O)c1CCN1CCC(=C(c2ccc(F)cc2)c2ccc(F)cc2)CC1 [Ritanserin]	2.4	2.0	2.2	1.8	2.0	1.9	1.6
